20 compounds from patent US10689378B2, “Triazolopyridine compounds and uses thereof” (Novartis AG, priority 2016, dated 2020) can be followed below.

In general, IC50 refers to the concentration that inhibits the measured activity by half.

For one assay, the target named is T1, EED (1-441)-His protein (Homo sapiens, UniProt O75530).
T1 construct: 30 nM EED (1-441)-His protein
The experiment in a line: EED-H3K27Me3 peptide competition binding assay by AlphaScreen. To be noted: EED-H3K27Me3 peptide competition, AlphaScreen; read-out: (a) IC50 EED Alphascreen binding Qualified. The procedure, abridged: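 Serially diluted compound (12 points, 3-fold) incubated 20 min with 30 nM EED(1-441)-His and 15 nM biotin-H3K27Me3(19-33) peptide in 25 mM HEPES pH 8, 0.02% Tween-20, 0.5% BSA. Ni-chelate acceptor/streptavidin donor beads (10 μg/mL each) added, 1 h rt dark; 615 nm emission normalized to controls, dose-response fit for IC50.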

Assay [1] has as its target wild type PRC2 (wtPRC2) complex (Homo sapiens, UniProt O75530). The assay can be described thus: EED LC-MS assay (SAH production by PRC2). The assay is classed as biochemical. The following applies: PRC2 LC-MS assay; read-out: (b) IC50 EED LC-MS Qualified. The method, boiled down: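 LC-MS/MS readout of SAH (d4-SAH standard) after TFA quench gives PRC2 activity, normalized to controls and fitted to dose-response for IC50. Reaction: 12 nM EZH2/SUZ12/EED/Rbap48/AEBP complex, 1 μM SAM, 1.5 μM H3[21-44] peptide, 120 min rt, 20 min compound preincubation.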

In assay [2] the test system is H3K27 methylation in G401 cell. The experiment in a line: ELISA (H3K27 methylation) assay in G401 cells. The assay is classed as cell-based, human. To be noted: Homo sapiens, G-401, H3K27 methylation ELISA, read-out: (c) IC50 ELISA Qualified. The procedure, abridged: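 IC50 from dose-response fit of percent inhibition relative to DMSO, using H3K27me3/me2 ELISA signal (ECL) normalized to histone H3. Histones HCl-extracted after 48 h compound exposure of G401 cells at up to 20 μM, 8- or 12-point 3-fold series.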
A general note: ELISA stands for enzyme-linked immunosorbent assay.

T1 sequence (O75530 whole entry): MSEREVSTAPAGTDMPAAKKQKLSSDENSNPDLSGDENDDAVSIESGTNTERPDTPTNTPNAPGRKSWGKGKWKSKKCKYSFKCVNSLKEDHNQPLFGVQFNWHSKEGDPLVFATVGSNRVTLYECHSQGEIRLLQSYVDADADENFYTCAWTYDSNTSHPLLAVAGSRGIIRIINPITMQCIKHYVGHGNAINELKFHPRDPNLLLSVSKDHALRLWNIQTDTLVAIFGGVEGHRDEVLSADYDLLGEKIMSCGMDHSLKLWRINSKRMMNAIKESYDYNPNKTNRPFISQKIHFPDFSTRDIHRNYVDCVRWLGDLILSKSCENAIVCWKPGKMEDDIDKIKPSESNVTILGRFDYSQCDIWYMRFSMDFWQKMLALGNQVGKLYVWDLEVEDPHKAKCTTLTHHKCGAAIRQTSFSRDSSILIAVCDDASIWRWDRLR
Sequence of wild type PRC2 (wtPRC2) complex (O75530 whole entry): as above
Sequence of wild type PRC2 (wtPRC2) complex (Q15910 whole entry partner): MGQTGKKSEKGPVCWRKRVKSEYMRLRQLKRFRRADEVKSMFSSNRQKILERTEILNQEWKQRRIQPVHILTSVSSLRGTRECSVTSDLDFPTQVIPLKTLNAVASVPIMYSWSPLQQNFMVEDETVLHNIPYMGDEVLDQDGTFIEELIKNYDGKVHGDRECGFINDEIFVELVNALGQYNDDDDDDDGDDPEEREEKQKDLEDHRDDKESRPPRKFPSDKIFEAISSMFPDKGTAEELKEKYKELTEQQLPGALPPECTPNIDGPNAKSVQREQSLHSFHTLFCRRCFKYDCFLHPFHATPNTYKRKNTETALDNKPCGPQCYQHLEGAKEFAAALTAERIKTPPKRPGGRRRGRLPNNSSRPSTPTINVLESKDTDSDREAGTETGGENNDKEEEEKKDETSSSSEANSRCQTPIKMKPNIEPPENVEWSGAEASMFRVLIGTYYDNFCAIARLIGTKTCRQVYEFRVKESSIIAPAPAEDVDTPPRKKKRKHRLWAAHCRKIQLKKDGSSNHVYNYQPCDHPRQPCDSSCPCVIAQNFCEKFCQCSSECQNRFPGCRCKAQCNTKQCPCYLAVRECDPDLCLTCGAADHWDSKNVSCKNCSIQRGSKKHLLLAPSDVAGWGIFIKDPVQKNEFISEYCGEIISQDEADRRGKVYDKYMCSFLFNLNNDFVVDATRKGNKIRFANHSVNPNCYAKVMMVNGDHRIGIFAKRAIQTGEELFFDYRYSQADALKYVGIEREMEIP
Sequence of wild type PRC2 (wtPRC2) complex (Q15022 whole entry partner): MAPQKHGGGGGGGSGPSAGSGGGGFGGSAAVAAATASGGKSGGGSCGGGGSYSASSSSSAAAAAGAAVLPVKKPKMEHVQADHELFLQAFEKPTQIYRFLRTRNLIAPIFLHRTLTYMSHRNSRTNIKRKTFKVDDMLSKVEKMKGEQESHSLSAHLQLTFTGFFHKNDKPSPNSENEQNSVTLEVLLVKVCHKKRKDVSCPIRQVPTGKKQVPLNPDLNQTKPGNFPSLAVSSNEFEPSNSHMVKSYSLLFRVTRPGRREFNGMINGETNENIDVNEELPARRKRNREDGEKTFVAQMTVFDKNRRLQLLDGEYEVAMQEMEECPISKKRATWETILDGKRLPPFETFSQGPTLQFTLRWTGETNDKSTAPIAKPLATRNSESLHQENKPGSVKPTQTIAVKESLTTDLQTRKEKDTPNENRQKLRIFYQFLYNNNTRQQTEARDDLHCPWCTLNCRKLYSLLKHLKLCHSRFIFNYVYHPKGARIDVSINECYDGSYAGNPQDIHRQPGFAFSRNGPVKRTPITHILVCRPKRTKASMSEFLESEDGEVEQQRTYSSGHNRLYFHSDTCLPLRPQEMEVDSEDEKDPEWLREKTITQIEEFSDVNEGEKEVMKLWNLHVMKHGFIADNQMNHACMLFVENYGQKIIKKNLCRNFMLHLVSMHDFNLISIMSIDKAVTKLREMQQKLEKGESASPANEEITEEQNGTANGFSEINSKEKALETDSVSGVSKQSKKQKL
Sequence of wild type PRC2 (wtPRC2) complex (Q09028 whole entry partner): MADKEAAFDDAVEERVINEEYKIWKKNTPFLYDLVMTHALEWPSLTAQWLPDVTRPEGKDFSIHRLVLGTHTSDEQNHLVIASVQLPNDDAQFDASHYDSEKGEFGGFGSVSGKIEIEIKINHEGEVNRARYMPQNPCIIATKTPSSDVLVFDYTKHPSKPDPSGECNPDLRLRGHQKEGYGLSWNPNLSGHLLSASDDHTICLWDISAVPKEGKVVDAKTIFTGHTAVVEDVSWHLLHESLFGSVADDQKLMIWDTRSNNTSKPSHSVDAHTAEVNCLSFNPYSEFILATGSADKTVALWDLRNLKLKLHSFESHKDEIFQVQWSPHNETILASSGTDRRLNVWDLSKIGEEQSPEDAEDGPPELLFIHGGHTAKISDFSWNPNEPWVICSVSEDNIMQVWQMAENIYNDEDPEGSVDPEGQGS
Sequence of wild type PRC2 (wtPRC2) complex (Q6ZN18 whole entry partner): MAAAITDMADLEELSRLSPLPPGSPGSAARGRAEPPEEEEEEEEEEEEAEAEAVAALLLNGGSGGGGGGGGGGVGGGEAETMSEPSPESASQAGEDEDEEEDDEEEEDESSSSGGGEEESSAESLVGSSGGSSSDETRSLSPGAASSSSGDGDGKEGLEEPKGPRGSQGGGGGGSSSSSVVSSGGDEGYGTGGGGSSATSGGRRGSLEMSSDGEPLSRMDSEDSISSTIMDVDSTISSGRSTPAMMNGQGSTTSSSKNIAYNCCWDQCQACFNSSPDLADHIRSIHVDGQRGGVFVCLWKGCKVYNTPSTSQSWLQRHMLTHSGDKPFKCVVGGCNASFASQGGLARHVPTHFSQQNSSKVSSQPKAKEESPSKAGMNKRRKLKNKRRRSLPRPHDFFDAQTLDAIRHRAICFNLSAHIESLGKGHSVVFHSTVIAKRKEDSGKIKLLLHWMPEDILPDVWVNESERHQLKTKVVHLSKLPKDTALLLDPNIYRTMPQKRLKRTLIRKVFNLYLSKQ

Turning to `COc1cccc(F)c1CNc1ccc(-c2cnc(C#N)cc2C)c2nncn12` [Example 251, 5-(5-((2-fluoro-6-methoxybenzyl)amino)-[1,2,4]triazolo[4,3-a]pyridin-8-yl)-4-methylpicolinonitrile], the values for the IC50 (on EED (1-441)-His protein; in assay [1]; in assay [2]) were 15.7 nM, 41.8 nM and 8.6 nM, respectively.
For `COc1cccc(F)c1CNc1ccc(-c2cnc(C(=O)N(C)C)cc2C)c2nncn12` [Example 252, 5-(5-((2-fluoro-6-methoxybenzyl)amino)-[1,2,4]triazolo[4,3-a]pyridin-8-yl)-N,N,4-trimethylpicolinamide], in that order: 14.1 nM, 7.9 nM and 4.4 nM.
As for `COc1cc(F)cc(F)c1CNc1ccc(-c2cnccc2C)c2nncn12` [Example 253, N-(2,4-difluoro-6-methoxybenzyl)-8-(4-methylpyridin-3-yl)-[1,2,4]triazolo[4,3-a] pyridin-5-amine], the results for the IC50 (on EED (1-441)-His protein; in assay [1]; in assay [2]) were 66.2 nM, 289 nM and 59.2 nM, respectively.
As for `COc1cccc(F)c1CNc1ccc(-c2ccc(CNC(C)=O)nc2)c2nncn12` [Example 256, N-((5-(5-((2-fluoro-6-methoxybenzyl)amino)-[1,2,4]triazolo[4,3-a]pyridin-8-yl)pyridin-2-yl)methyl) acetamide], the IC50 on EED (1-441)-His protein was determined as 25.1 nM; in assay [1] it was 159 nM; in assay [2], 10.4 nM.
In the case of `COc1cccc(F)c1CNc1ccc(-c2cnccc2C(F)F)c2nncn12` [Example 258, 8-(4-(difluoromethyl)pyridin-3-yl)-N-(2-fluoro-6-methoxybenzyl)-[1,2,4] triazolo [4,3-a]pyridin-5-amine], the IC50 worked out at 24.5 nM at EED (1-441)-His protein, 71.6 nM in assay [1] and 16.7 nM in assay [2].
The like results for `COc1cccc(F)c1CNc1ccc(-c2cnc(N(C)C)nc2C)c2nncn12` [Example 260, 8-(2-(dimethylamino)-4-methylpyrimidin-5-yl)-N-(2-fluoro-6-methoxybenzyl)-[1,2,4]triazolo[4,3-a]pyridin-5-amine] were, in that order, 35.4 nM, 45.9 nM and 21.7 nM.
For `COc1cccc(F)c1CNc1ccc(-c2cccnc2C(F)F)c2nncn12` [Example 265, 8-(2-(difluoromethyl)pyridin-3-yl)-N-(2-fluoro-6-methoxybenzyl)-[1,2,4] triazolo[4,3-a]pyridin-5-amine], in that order: 14.1 nM, 6.3 nM and 7.1 nM.
For `COc1cccc(F)c1CNc1ccc(-c2ccc(N3CCOCC3)nc2C)c2nncn12` [Example 266, N-(2-fluoro-6-methoxybenzyl)-8-(2-methyl-6-morpholinopyridin-3-yl)-[1,2,4]triazolo[4,3-a]pyridin-5-amine], in that order: 8.9 nM, 56.2 nM and 9.9 nM.
Consider `COc1cccc(F)c1CNc1ccc(-c2cnc(Cl)cc2C)c2nncn12` [Example 267, 8-(6-chloro-4-methylpyridin-3-yl)-N-(2-fluoro-6-methoxybenzyl)-[1,2,4]triazolo[4,3-a] pyridin-5-amine], for which the half-inhibitory concentration (IC50) was determined as 17 nM at EED (1-441)-His protein, 75.8 nM in assay [1] and 14.6 nM in assay [2].
The like results for `COc1cccc(F)c1CNc1ccc(-c2cnc(C)cc2C)c2nncn12` [Example 268, 8-(4,6-dimethylpyridin-3-yl)-N-(2-fluoro-6-methoxybenzyl)-[1,2,4]triazolo[4,3-a] pyridin-5-amine] were, in that order, 19.4 nM, 34 nM and 21.4 nM.
Consider `COc1cccc(F)c1CNc1ccc(-c2ccc(C(=O)N(C)C)nc2C)c2nncn12` [Example 269, 5-(5-((2-fluoro-6-methoxybenzyl)amino)-[1,2,4]triazolo[4,3-a]pyridin-8-yl)-N,N,6-trimethylpicolinamide], for which the IC50 on EED (1-441)-His protein worked out at 8.9 nM; in assay [1], 60.1 nM; in assay [2], 4.8 nM.
The like results for `COc1cccc(F)c1CNc1ccc(-c2cnc(C3CC3)cc2C)c2nncn12` [Example 270, 8-(6-cyclopropyl-4-methylpyridin-3-yl)-N-(2-fluoro-6-methoxybenzyl)-[1,2,4]triazolo[4,3-a]pyridin-5-amine] were, in that order, 27.3 nM, 106 nM and 42.3 nM.
For `CCc1cc(S(C)(=O)=O)ccc1-c1ccc(NCc2c(F)cccc2OC)n2cnnc12` [Example 271, 8-(2-ethyl-4-(methylsulfonyl)phenyl)-N-(2-fluoro-6-methoxybenzyl)-[1,2,4]triazolo[4,3-a]pyridin-5-amine], in that order: 33.2 nM, 80.3 nM and 30 nM.
For the compound `CCc1ccncc1-c1ccc(NCc2c(F)cccc2OC)n2cnnc12` [Example 272, 8-(4-ethylpyridin-3-yl)-N-(2-fluoro-6-methoxybenzyl)-[1,2,4]triazolo[4,3-a]pyridin-5-amine], the IC50 on EED (1-441)-His protein was determined as 34.7 nM; in assay [1] it was 57.5 nM; in assay [2] it was 61.8 nM.
The like results for `COc1cccc(F)c1CNc1ccc(-c2cncnc2C(C)C)c2nncn12` [Example 273, N-(2-fluoro-6-methoxybenzyl)-8-(4-isopropylpyrimidin-5-yl)-[1,2,4] triazolo[4,3-a]pyridin-5-amine] were, in that order, 69 nM, 99.7 nM and 61.3 nM.
The like results for `COc1cccc(F)c1CNc1ccc(-c2c(C)nn(CC(C)O)c2C)c2nncn12` (stereo not drawn) [Example 274, 1-(4-(5-((2-fluoro-6-methoxybenzyl)amino)-[1,2,4]triazolo[4,3-a]pyridin-8-yl)-3,5-dimethyl-1H-pyrazol-1-yl)propan-2-ol] were, in that order, 14.6 nM, 25.3 nM and 15.4 nM.
The like results for `COc1cccc(F)c1CNc1ccc(-c2c(C)nn(C3CC3)c2C)c2nncn12` [Example 275, 8-(1-cyclopropyl-3,5-dimethyl-1H-pyrazol-4-yl)-N-(2-fluoro-6-methoxybenzyl)-[1,2,4]triazolo[4,3-a] pyridin-5-amine] were, in that order, 23.3 nM, 71.8 nM and 21.6 nM.
Take `COc1cccc(F)c1CNc1ccc(-c2ccnc(F)c2C)c2nncn12` [Example 276, 8-(2-fluoro-3-methylpyridin-4-yl)-N-(2-fluoro-6-methoxybenzyl)-[1,2,4]triazolo[4,3-a] pyridin-5-amine]: the IC50 at EED (1-441)-His protein turned out to be 13.9 nM; in assay [1], 50.5 nM; in assay [2] it was 8 nM.
For `COc1cccc(F)c1CNc1ccc(-c2ccnc(C(F)F)c2C)c2nncn12` [Example 277, 8-(2-(difluoromethyl)-3-methylpyridin-4-yl)-N-(2-fluoro-6-methoxybenzyl)-[1,2,4]triazolo[4,3-a]pyridin-5-amine], in that order: 14.2 nM, 32.2 nM and 12 nM.
For `COc1cccc(F)c1CNc1ccc(-c2ccnc(CF)c2C)c2nncn12` [Example 278, N-(2-fluoro-6-methoxybenzyl)-8-(2-(fluoromethyl)-3-methylpyridin-4-yl)-[1,2,4] triazolo[4,3-a]pyridin-5-amine], in that order: 11 nM, 27 nM and 6.4 nM.
